Type in all cases: cell-based, human
The subject of assay [1] is IL-6. Briefly: IL-6 expression in PBECs (ELISA, RT-PCR). On the procedure:
(§1) FIG. 5. Analysis of IL-6 (FIG. 5A) and IL-8 (FIG. 5B) expression in primary bronchial epithelial cells (PBECs) and human umbilical vein endothelial cells (HUVECs) stimulated by ML-1. The IL-6 and IL-8 protein release in the supernatant was determined by ELISA as described in Example 8. The results were expressed as mean+SD (n=6). *p<0.05 was considered significant vs control.
(§2) FIG. 7A-7D. Effect of PD98059 on IL-6 (FIG. 7A) and IL-8 (FIG. 7B) protein production in PBECs and HUVECs. The cells were preincubated with varying concentrations of PD98059, SB202190, or DMSO vehicle control for 1 hour, followed by stimulation with ML-1 (100 ng/ml) for 24 hours. The results are expressed as the mean+SD (n=6). *P<0.05 when compared to cultures without the addition of PD98059. FIGS. 7C and 7D. Semi-quantitative analysis of gene expression for IL-6 (FIG. 7C) and IL-8 (FIG. 7D) by RT-PCR. The cells were preincubated as described above and treated with ML-1 for 4 hours. RT-PCR was performed as described in Example 8. The results shown are representative of three separate experiments.
(§3) Primary bronchial epithelial cells (PBECs) were purchased from Clonetics (San Diego, Calif.) and cultured in bronchial epithelial basal medium (Clonetics) containing 0.5 ng/ml human recombinant epidermal growth factor (EGF), 52 mg/ml bovine pituitary extract, 0.1 mg/ml retinoic acid, 0.5 mg/ml hydrocortisone, 5 mg/ml insulin, 10 mg/ml transferrin, 0.5 mg/ml epinephrine, 6.5 ng/ml triiodothyronine, […] gentamicin, and 50 pg/ml amphotericin-B (Clonetics). […]
(§4) The amplification reaction was performed for 23 cycles with denaturation at 94° C. for 45 seconds, annealing at 56° C. for 45 seconds, and extension at 72° C. for 45 seconds. PCR products were detected by ethidium bromide staining and normalized by the intensity of an amplified housekeeping gene, G3PDH (see above). […] IL-6 and IL-8 protein levels in the collected supernatants were determined with a commercially available ELISA kit (Biosource, Camarillo, Calif.) according to the manufacturer's instructions.
Background: An ELISA detects its analyte on a solid surface through an enzyme-linked reagent.

Assay [2] has as its system IL-8. Put plainly: IL-8 expression in PBECs (ELISA, RT-PCR). On the procedure: as §1, §2, §3, §4
In assay [3] the test system is IL-6. Put plainly: IL-6 expression in HUVECs (ELISA, RT-PCR). On the procedure:
as §1, §2
(§5) Human umbilical vein endothelial cells (HUVECs) were obtained from Clonetics and cultured in endothelial cell growth media (EGM; Clonetics) containing 12 μg/ml bovine brain extract, 10 ng/ml EGF, 1 μg/ml hydrocortisone, 50 μg/ml gentimicin, 50 ng/ml amphotericin B, and 5% FBS amphotericin-B (Clonetics).
(§6) PBECs and HUVECs were treated with ML-1 100 ng/ml of ML-1 for various time points. Total RNA was extracted using RNeasy (Qiagen) from 1×10^6 cells 4 hours after stimulation or exchange of media. […]
as §4

For assay [4], the system named is IL-8. Put plainly: IL-8 expression in HUVECs (ELISA, RT-PCR). On the procedure: as §1, §2, §5, §6, §4
Assay [5] deals with ERK1/2. Put plainly: Western blotting of ERK1/2 phosphorylation in PBECs. Conditions: pre-incubation with 10 μM for 1 hour, then ML-1 for 20 minutes. The method, then:
(§7) FIGS. 6A-6D. Kinetic activation of ERK1/2 by ML-1 in PBECs (FIG. 6A) and HUVECs (FIG. 6B). The cells were incubated with or without ML-1 (100 ng/ml) for different time points as indicated. Western blotting analysis was performed by using antibodies against different MAP kinases as described in Example 8. FIGS. 6C and 6D. Effect of PD98059 on ML-1-induced phosphorylation of ERK1/2 in PBECs (FIG. 6C) and HUVECs (FIG. 6D). The cells were preincubated with PD98059 ([…]) or DMSO vehicle control for 1 hour, followed by stimulation of PBECs and HUVECs with medium or ML-1 for 20 minutes or 10 minutes, respectively. The results shown are representative of three separate experiments.
(§8) For analysis of activation of MAP kinases, PBECs were treated with IL-17 (100 ng/ml) for various time periods, with or without the MEK 1/2 inhibitor PD98059 ([…]; Calbiochem, La Jolla, Calif.) (15), the p38 inhibitor SB202190 (0.5-10 μM; ref. 16), or a vehicle control, DMSO (Me2SO) for 1 hour. […] Following the treatment, the cells were washed with ice-cold PBS. Cell pellets were immediately lysed in cold lysis buffer [20 mM Tris (pH 7.4), 4 mM EDTA, 2 mM EGTA, 1 mM PMSF, […] aprotinin, 200 mg/ml leupeptin, 50 mM NaF, 5 mM NaRP2O7, 1 mM Na3VO4, and 1% Nonidet P40; all purchased from Sigma]. Extracts (1×10^6 cell equivalents/lane) were suspended with an equal volume of 2× loading buffer [0.1 M Tris-HCl (pH 6.8)], 4% SDS, 0.005% bromophenol blue, and 20% glycerol) containing 2-ME (0.7 M) and subjected to 4-20% Tris-glycine gel electrophoresis (NOVEX, San Diego, Calif.). Gels were then transferred to PVDF membranes (BIO-RAD, Hercules, Calif.) with a Trans Blot apparatus (NOVEX). The membranes were immersed overnight in This-buffered saline/Tween 20 containing 5% nonfat dry skim milk (Carnation, Los Angeles, Calif.).
(§9) Immunoreactive proteins were detected using antibodies against various kinases and phosphorylated kinases. […] Western blotting detection reagents (Amersham) and Hyper ECL luminescence detection film (Amersham) were used. […]
Background: In western blotting, separated proteins are transferred to a membrane and probed.

The subject of assay [6] is ERK1/2. Put plainly: Western blotting of ERK1/2 phosphorylation in HUVECs. Conditions: pre-incubation with 10 μM for 1 hour, then ML-1 for 10 minutes. The method, then: as §7, §8, §9
The test system of assay [7] is ICAM-1. Briefly: ICAM-1 surface protein expression on NHBE cells by flow cytometry. Particulars: 100 ng/ml, 48 hours, mean±SD (n=4). The method, then: FIG. 4. Effect of ML-1 on ICAM-1 surface expression on NHBE cells by Flow Cytometry. NHBE cells were treated for 48 hours under following conditions: medium only, rIL-17 (100 ng/ml), purified His-tagged protein (Positope, 100 ng/ml), or ML-1 (100 ng/ml) as indicated. The mean fluorescence intensity of ICAM-1 surface expression was measured. The experiment was conducted four times. The results shown are from a representative experiment. * p<0.01.
To determine whether ML-1 is able to induce ICAM-1 expression on NHBE cells, surface expression of ICAM-1 on NHBE cells was measured and the effects of ML-1 and IL-17 were compared.
NHBE cells were treated with IL-17 (100 ng/ml), ML-1 (100 ng/ml), or a control His protein (Positope, 100 ng/ml). The cells were harvested following treatment with 0.1% trypsin-0.02% EDTA at 37° C. for 6 minutes and suspended in PBS containing 2% BSA and 0.02 % sodium azide. One million cells were incubated with a mouse anti-human ICAM-1 monoclonal antibody (R&D Systems, Minneapolis, Minn.) on ice for 30 minutes. […] After three additional washes in PBS, the cells were resuspended in PBS and immediately analyzed with a FACScan flow cytometer (Becton Dickinson, Mountain View, Calif.). […] Indices are expressed as mean±SD (n=4).
On the technique in general: A flow cytometer gives signals particle by particle.

For assay [8], the system named is IL-8. Briefly: IL-8 expression in NHBE cells (RT-PCR and ELISA). Particulars: 100 ng/ml. From the text:
FIGS. 3A-3C. FIG. 3A, Expression of ML-1 protein in COS-7 cells. COS-7 cells were transfected with a gene construct containing full-length ML-1 sequence and a tag sequence encoding poly (His) peptide. ML-1-His fusion proteins were purified from supernatants of the transfected cells using a His affinity column, run on an 8-16% SDS-polyacrylamide gel under reducing conditions, and analyzed by Western Blot using anti-His monoclonal antibody. Lane 1 represents a mock-transfected sample. Lane 2 represents an ML-1-transfected sample. The location of a 19.5 kd marker is indicated. FIG. 3B, Effect of ML-1 on IL-8 gene expression. Human primary bronchial epithelial cells (NHBE cells) were treated with different stimuli. The cells were harvested 4 hours after stimulation, and total RNA was extracted and subjected to RT-PCR using IL-8 and G3PDH primers. Lane 1, medium only; lane 2, cells treated with rIL-17 (100 ng/ml); lane 3, cells treated with purified His-tagged protein (Positope, 100 ng/ml); lane 4, cells treated with ML-1 (100 ng/ml). FIG. 3C, Effect of ML-1 on IL-8 protein production. NHBE cells were treated with the same stimuli used in FIG. 3B, and the supernatants were harvested 48 hours after stimulation.
Primary human bronchial epithelial (NHBE) cells were purchased from Clonetics (San Diego, Calif.) and cultured according to the manufacturer's instructions. The cells were treated with IL-17 (100 ng/ml), ML-1 (100 ng/ml), or a control His-tagged protein (Positope, 100 ng/ml; Invitrogen, Carlsbad, Calif.). The affinity-purified control His protein was dissolved in the same buffer as ML-1. Total RNA was extracted using Rneasy (Qiagen, Chatsworth, Calif.) from 1×10^6 cells 4 hours after stimulation or exchange of media. The protocol for cDNA synthesis was that described above. For PCR, the sequences of PCR primers were based on the human IL-8 cDNA sequence. The sequences of PCR primers for IL-8 were: forward, 5′-TCTGCAGCTCTGTGTGAAG-3′ (SEQ ID NO:14) and reverse, 5′-TAATTTCTGTGTTGGCGCA-3′ (SEQ ID NO:15). The amplification reaction was performed for 23 cycles with denaturation at 94° C. for 45 seconds, annealing at 56° C. for 45 seconds, and extension at 72° C. for 45 seconds PCR products were detected by ethidium bromide staining. The expected size for IL-8 was 154 basepairs. IL-8 protein levels in the collected supernatants were determined with a commercially available ELISA kit (Biosource, Camarillo, Calif.) according to the manufacturer's instructions.

Where [9] appears, read: 1 hour preincubation, varying concentrations, ML-1 100 ng/ml 24 hours.
The mark [10] stands for this setting: preincubation, ML-1 for 4 hours, semi-quantitative RT-PCR.

“Also recorded” adds a separate entry of the source.

Turning to `COc1cccc(-c2cc(=O)c3ccccc3o2)c1N` [PD98059], the “effect on ML-1-induced IL-6 protein production” value in assay [1] (setting [9]) and in assay [3] (setting [9]) was “inhibited; also recorded: not completely inhibited” throughout. Further, the “effect on ML-1-induced IL-6 gene expression” value in assay [1] (setting [10]) and in assay [3] (setting [10]) was “Decreased levels” each time. The “effect on ML-1-induced IL-8 protein production” value in assay [2] (setting [9]) and in assay [4] (setting [9]) was “inhibited; also recorded: not completely inhibited” each time. In addition, the “effect on ML-1-induced IL-8 gene expression” value in assay [2] (setting [10]) and in assay [4] (setting [10]) was “Decreased levels” each time. Also, the “effect on ML-1-induced activation of ERK1/2” value in assay [5] and in assay [6] was “diminished” throughout.

“IL-17: human IL-17, T-cell derived homodimeric cytokine, used as comparator”: in assay [7], the “ICAM-1 surface expression, mean fluorescence intensity (MFI)” value stood at 10.07±1.22. In assay [8] (ELISA of supernatants, 48 hours), the IL-8 protein expression result is on record as “enhanced”. Also, the IL-8 transcript expression result in assay [8] (RT-PCR) was “enhanced”.

(Values after US20060073572A1, “Cytokine structurally related to IL-17” (The Johns Hopkins University, priority 2001, published 2006).)
